Measurements published in PMC8233204, “Cardiac myosin-binding protein C interaction with actin is inhibited by compounds identified in a high-throughput fluorescence lifetime screen” (The Journal of Biological Chemistry, 2021).
“Also recorded” adds a separate entry of the source. Like-named read-outs stand apart in the source and are kept apart here.

Tests used:
C0-C2 = target: T1, C0-C2 (Homo sapiens, UniProt Q14896); experiment: Visible light scattering (C0-C2 aggregation); settings: 2 or 10 μM C0-C2 mixed with compound for 20 min
T1 construct: N-terminal domains C0 through C2 (C0-C2), containing the proline/alanine-rich linker (P/A) and the M-domain (M); 6x His (N, cleaved yes); TEV protease cleavage site (N, cleaved yes); made in house; host or cells: E. coli BL21DE3
Experimental: All three drugs were tested for causing C0-C2 to aggregate by measuring absorbance in the visible range beyond the absorption of protein or the drugs themselves. Observed absorbance in these wavelengths is actually loss of transmitted light due to light scattering from aggregated C0-C2. 2 or 10 μM of C0-C2 was mixed with 20 μM of suramin, NF023, or ATA for 20 min and wavelengths 250–600 nm were scanned using a Beckman Coulter DU730 UV/Vis Spectrophotometer to determine optical density. The same was done with 2 or 10 μM of C0-C2 and 20 μM of suramin, NF023, or ATA alone.

[1] = target: T2, FMAL-actin:TMR-C0-C2^Cys225 (Homo sapiens, UniProt Q14896, C239L/C249S/C426T/C436V/C443S/H225C); experiment: FMAL-actin-TMR-C0-C2 TR-FRET binding assay; settings: 20 μM compound; 1 μM FMAL-actin, 2 μM TMR-C0-C2; both nonphosphorylated and phosphorylated C0-C2
T2 construct: N-terminal domains C0 through C2 (C0-C2), containing the proline/alanine-rich linker (P/A) and the M-domain (M); 6x His (N, cleaved yes); TEV protease cleavage site (N, cleaved yes); made in house; host or cells: E. coli BL21DE3 (C0-C2^Cys225); actin purified from rabbit skeletal muscle
Experimental: In total, 1 μM F-Actin labeled (to 10%) on Cys-374 with FMAL (donor fluor) was incubated with increasing concentrations (0–20 μM) of C0-C2^Cys225 unlabeled (for donor only (D) data acquisition) or labeled to 95% with TMR (acceptor fluor) (for donor–acceptor (DA) data). Lifetimes of FMAL-actin were determined for D and DA at each concentration of C0-C2^Cys225. TR-FRET efficiency (1 – (τDA/τD)) was determined for each C0-C2^Cys225 concentration. The binding curve was generated from data from two separate preparations of actin and C0-C2^Cys225. Testing of compound effects by TR-FRET was similarly done at 1 μM FMAL-actin with unlabeled C0-C2^Cys225 (D) and TMR-C0-C2^Cys225 (DA), both at 2 μM.

AF568-actin = target: T3, AF568-actin (Oryctolagus cuniculus, UniProt P68135); experiment: TR-F high-throughput screen, AF568-actin alone (no C0-C2); type: binding, rabbit; settings: 10 μM compound; 1 μM AF568-actin alone
T3 construct: Actin was prepared from rabbit skeletal muscle by extracting acetone powder; from tissue; host or cells: rabbit skeletal muscle (acetone powder)
Experimental: (§1) The 1280 LOPAC compounds were received in 96-well plates (LOPAC^1280, Sigma-Aldrich) and were reformatted into 1536-well flat, black-bottom polypropylene plates (Greiner Bio-One). In total, 50 nl of compounds was dispensed using an automated Echo 550 acoustic liquid dispenser (Labcyte). LOPAC compounds were formatted into plates, with the first two and last two columns loaded with 50 nl of DMSO and used for compound-free controls. The final concentration of the compounds was 10 μM. These assay plates were then heat-sealed using a PlateLoc Thermal Microplate Sealer (Agilent Technologies) and stored at –20 °C. Before screening, compound plates were equilibrated to room temperature (25 °C). In total, 1 μM AF568-labeled actin without or with 2 μM C0-C2 in M-ABB was dispensed by a Multidrop Combi Reagent Dispenser (Thermo Fisher Scientific) into the 1536-well assay plates containing the compounds. Plates were incubated at room temperature for 20 min before recording the data with the FLTPR. Plates were rescanned after 120 min incubation.
(§2) Two full screens were done using different batches of AF568-labeled actin, C0-C2, and test compounds.
(§3) Following data acquisition, TR-F waveforms observed for each well were convolved with the IRF to determine the lifetime (τ) (Equation 1) by fitting to a single-exponential decay ([15], [35]).
(§4) A compound was considered a Hit if it was in the top 25 compounds in each of two independent screenings of the LOPAC. Top compounds were those that increased the lifetime of AF568-actin when C0-C2 was present (indicating inhibition of C0-C2 binding). Compounds that altered AF568-actin lifetime when C0-C2 was not present by >4 SD relative to that of the control samples (those exposed to 0.1% DMSO) were first removed from the analysis. […] Any change in lifetime induced by a compound on AF568-actin alone was then subtracted from the effect of the compound on AF568-actin when C0-C2 was present. The resulting C0-C2-dependent change for all compounds was ranked.

[2] = target: T4, AF568-actin:C0-C2 (actin-cMyBP-C binding) (Homo sapiens, UniProt Q14896); experiment: TR-F high-throughput screen of LOPAC library, AF568-actin with C0-C2; settings: for Actin-MyBP-C Drug Δτ, Screen 1 / Actin-MyBP-C Drug Δτ, Screen 2 / Actin-MyBP-C Drug Δτ, Sub-optimal Screen 3 / Actin-MyBP-C Drug Δτ, Sub-optimal Screen 4 / average change in lifetime, SD above the median of all compounds not excluded: 10 μM compound, 1 μM AF568-actin, 2 μM C0-C2; for average change in lifetime, SD above the median of all compounds not excluded: average of screens; for Difference, Screen 1 / Difference, Screen 2 / Difference, Sub-optimal Screen 3 / Difference, Sub-optimal Screen 4: Δτ actin+C0-C2 after subtracting effect on actin alone
Experimental: as §1, §2, §3, §4

[3] = target: AF568-actin:phosphorylated (by PKA) C0-C2 (Homo sapiens, UniProt Q14896); experiment: TR-F concentration-response assay, AF568-actin with PKA-phosphorylated C0-C2; settings: for TR-F+PKA n: 3 μM phosphorylated C0-C2, n not defined in table
Experimental: (§5) Using the same conditions as in the primary screen, we determined the concentration dependence of each of the three Hit compounds on the AF568-actin lifetime effects. […] In a separate dose–response assay utilizing 3 μM C0-C2, we compared the effects of the compounds on nonphosphorylated and phosphorylated C0-C2. […] In the second dose-response assay, 3 μM instead of 2 μM C0-C2 was used in the second dose–response assay so that effects of compounds on phosphorylated C0-C2 could be readily detected, as phosphorylation of C0-C2 itself (in the absence of compounds) reduces binding to actin.
C0-C2 was treated with 7.5 ng PKA/μg C0-C2 at 30 °C for 30 min.
The Hit compounds were dissolved in DMSO to make a 10 mM stock solution, which was serially diluted in 96-well mother plates. Hits were screened at eight concentrations (0.5–100 μM). Compounds (1 μl) were transferred from the mother plates into 384-well plates using a Mosquito HV liquid handler (TTP Labtech Ltd). The same procedure of dispensing as for the pilot screening was applied in the TR-F concentration–response assays.

[4] = target: T4, AF568-actin:C0-C2 (actin-cMyBP-C binding); experiment: TR-F concentration-response assay, AF568-actin with C0-C2; settings: 2 μM C0-C2; for EC50: 1 μM AF568-actin, mean ± SE; for TR-F n: n not defined in table
Experimental: as §5
The Hit compounds were dissolved in DMSO to make a 10 mM stock solution, which was serially diluted in 96-well mother plates. Hits were screened at eight concentrations (0.5–100 μM). Compounds (1 μl) were transferred from the mother plates into 384-well plates using a Mosquito HV liquid handler (TTP Labtech Ltd). The same procedure of dispensing as for the pilot screening was applied in the TR-F concentration–response assays. Concentration dependence of the TR-F change was fitted using the Hill equation ([38]):(3) τ=τo+τmaxC^α/EC50α+C^α where τ and τ0 are TR-F in the presence and in the absence of the compound, τmax is the maximum effect, C is the compound concentration, EC50 is the compound concentration for which 50% of maximum effect is obtained, and α is the Hill coefficient of sigmoidicity.

[5] = target: C0-C2 portion of human cMyBP-C (Homo sapiens, UniProt Q14896); experiment: Isothermal titration calorimetry (ITC) of compounds binding to C0-C2; settings: for ITC ΔS / ITC ΔH / ITC ΔG: Table 1 average; for ITC ΔS: no unit in table (Fig. 4: J/mol•K); for ITC ΔH: no unit in table (Fig. 4: kJ/mol); for ITC ΔG: unit not given; for ITC n (stoichiometry, compound per C0-C2): average of two preparations
F-actin = target: T5, F-actin (Oryctolagus cuniculus, UniProt P68135); experiment: ITC of compounds with actin alone; type: binding, rabbit; settings: for ITC interaction with F-actin (in words): actin alone
T5 construct: Actin was prepared from rabbit skeletal muscle by extracting acetone powder; from tissue; host or cells: rabbit skeletal muscle (acetone powder)
Experimental: The titration of compounds binding to cMyBP-C was performed on an Affinity ITC (TA Instruments). Each compound in M-ABB buffer (2000–3000 μM) was titrated into C0-C2 in M-ABB buffer (100 μM, 350 μl). For the titration, a preliminary 2.5-μl injection (ignored in data analysis) was followed by 19–39 subsequent 2.5-μl injections with 4 min waits between each injection. The reference cell was filled with distilled water. To account for heat changes of dilution and mechanical mixing, binding data were corrected by subtraction of the final plateau injection values (when binding is complete) prior to curve fitting. Corrected binding data was processed using the NanoAnalyze analysis software (TA Instruments).
Figure S2. ITC of Suramin binding to actin alone. (A) Titration of 100 µM F-actin (in 350 µl) with 40 2.5
µl injections of 3,000 µM Suramin. (B) Fitted ITC binding curve for Suramin binding. Binding to actin was
for Suramin with actin alone (Kd ~200 µM).
(1 picture or pasted object on this page, not shown here)

[6] = compound binding to C0-C2, mean ± SE, two protein preparations, read-out: ITC Kd
[7] = single titration shown in Fig. 4
[8] = single titration shown in Fig. 4, 100 μM C0-C2, read-out: ITC Kd (fitted curve of Figure 4)

T2 sequence (Q14896 1-451 H225C/C239L/C249S/C426T/C436V/C443S limits assumed): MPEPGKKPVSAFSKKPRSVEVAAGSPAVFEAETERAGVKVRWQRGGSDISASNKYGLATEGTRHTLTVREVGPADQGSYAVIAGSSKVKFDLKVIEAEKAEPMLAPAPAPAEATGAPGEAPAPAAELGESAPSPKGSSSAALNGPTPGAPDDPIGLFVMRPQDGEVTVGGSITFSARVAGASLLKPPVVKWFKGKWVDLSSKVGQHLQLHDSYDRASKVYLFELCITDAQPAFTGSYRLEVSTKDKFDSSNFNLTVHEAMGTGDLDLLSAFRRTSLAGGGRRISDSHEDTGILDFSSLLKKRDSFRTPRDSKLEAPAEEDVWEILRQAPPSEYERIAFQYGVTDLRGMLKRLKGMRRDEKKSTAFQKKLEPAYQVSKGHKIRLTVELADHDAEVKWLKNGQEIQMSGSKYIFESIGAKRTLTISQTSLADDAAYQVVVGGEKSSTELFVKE
T4 sequence (Q14896 1-451 limits assumed): as the sequence (Q14896 1-451 H225C/C239L/C249S/C426T/C436V/C443S limits assumed) above, with C225H, L239C, S249C, T426C, V436C, S443C counted along it
C0-C2 portion of human cMyBP-C, sequence (Q14896 1-451 limits assumed): as the sequence (Q14896 1-451 H225C/C239L/C249S/C426T/C436V/C443S limits assumed) above, with C225H, L239C, S249C, T426C, V436C, S443C counted along it
AF568-actin:phosphorylated (by PKA) C0-C2, sequence (Q14896 1-451 limits assumed): as the sequence (Q14896 1-451 H225C/C239L/C249S/C426T/C436V/C443S limits assumed) above, with C225H, L239C, S249C, T426C, V436C, S443C counted along it
T1 sequence (Q14896 1-451 limits assumed): as the sequence (Q14896 1-451 H225C/C239L/C249S/C426T/C436V/C443S limits assumed) above, with C225H, L239C, S249C, T426C, V436C, S443C counted along it

| SMILES | absorbance in the visible range (light scatter, C0-C2 aggregation) (C0-C2) | TR-FRET measured binding of C0-C2 to actin, effect of compound [1] | Actin Drug Δτ, Screen 1 (AF568-actin) [ns] | Actin Drug Δτ, Screen 2 (AF568-actin) [ns] | Actin Drug Δτ, Sub-optimal Screen 3 (AF568-actin) [ns] | Actin Drug Δτ, Sub-optimal Screen 4 (AF568-actin) [ns] | Actin-MyBP-C Drug Δτ, Screen 1 [2] [ns] | Actin-MyBP-C Drug Δτ, Screen 2 [2] [ns] | Actin-MyBP-C Drug Δτ, Sub-optimal Screen 3 [2] [ns] | Actin-MyBP-C Drug Δτ, Sub-optimal Screen 4 [2] [ns] | average change in lifetime, SD above the median of all compounds not excluded [2] [SD] | Difference, Screen 1 [2] [ns] | Difference, Screen 2 [2] [ns] | Difference, Sub-optimal Screen 3 [2] [ns] | Difference, Sub-optimal Screen 4 [2] [ns] | EC50 [3] [µM] | TR-F+PKA n [3] | EC50 [4] [µM] | TR-F n [4] | ITC ΔS [5] | further results |
| --- | --- | --- | --- | --- | --- | --- | --- | --- | --- | --- | --- | --- | --- | --- | --- | --- | --- | --- | --- | --- | --- |
| O=C(O)C1=CC(=C(c2ccc(O)c(C(=O)O)c2)c2ccc(O)c(C(=O)O)c2)C=CC1=O [ATA, aurintricarboxylic acid] | detected absorption | almost completely eliminated; also recorded: near zero | -0.04 | 0.00 | -0.03 | 0.00 | 0.008 | 0.06 | 0.07 | 0.07 | 3.0 | 0.04 | 0.06 | 0.10 | 0.07 | 4.3 ± 0.9 | 1.4 | 7.9 ± 1.9 | 3.4 | 52.9 | ITC ΔH [5]: −10.2; ITC ΔG [5]: −25.8; ITC n (stoichiometry, compound per C0-C2) [5]: 3.1; Kd [5, 6]: 25.9 ± 2.2 µM; ITC n (fitted curve of Figure 4) [5, 7]: 2.1; ITC ΔH (fitted curve of Figure 4) [5, 7]: -10.4 kJ/mol; ITC ΔS (fitted curve of Figure 4) [5, 7]: 51.5 J/mol•K; Kd [5, 8]: 28.1 µM; ITC interaction with F-actin (in words) (F-actin): not apparent; also recorded: no interaction |
| Cc1ccc(C(=O)Nc2ccc(S(=O)(=O)O)c3cc(S(=O)(=O)O)cc(S(=O)(=O)O)c23)cc1NC(=O)c1cccc(NC(=O)Nc2cccc(C(=O)Nc3cc(C(=O)Nc4ccc(S(=O)(=O)O)c5cc(S(=O)(=O)O)cc(S(=O)(=O)O)c45)ccc3C)c2)c1 [Suramin, suramin] | did not detect absorption | almost completely eliminated | -0.03 | 0.00 | -0.03 | 0.04 | 0.088 | 0.15 | 0.18 | 0.13 | 6.5 | 0.12 | 0.16 | 0.21 | 0.09 | 4.8 ± 1.2 | 1.2 | 5.9 ± 1.2 | 3.6 | 32.3 | ITC ΔH [5]: −17.4; ITC ΔG [5]: −26.8; ITC n (stoichiometry, compound per C0-C2) [5]: 3.4; Kd [5, 6]: 16.6 ± 1 µM; ITC n (fitted curve of Figure 4) [5, 7]: 3.9; ITC ΔH (fitted curve of Figure 4) [5, 7]: -17.8 kJ/mol; ITC ΔS (fitted curve of Figure 4) [5, 7]: 30.2 J/mol•K; Kd [5, 8]: 17.6 µM; Kd (F-actin): ~200 µM; ITC interaction with F-actin (in words) (F-actin): weak interaction |
